# Assay: biological half-life for sleep-wake behaviour in rats
# Conditions: rat, in vivo
# Method: The biological half-lives of the phenoxyphenyl derivatives were determined for the sleep-wake behaviour in rats and compared with the half-lives of the prior art compounds.
row,Structure (SMILES),half-life [h]
1,"NCc1ccccc1Sc1ccccc1 [2-(phenylthio)benzenemethanamine, reference compound]",0.5
2,"Clc1ccc(Oc2ccccc2C2=NCCN2)cc1Cl.O=C(O)/C=C\C(=O)O [Example 6a, 2-[2-(3,4-dichlorophenoxy)phenyl]-4,5-dihydro-1H-imidazole (Z)-2-butenedioate]",1.5 to 2.5
3,"COc1ccc(Sc2ccccc2CN)cc1 [2-[(4-methoxyphenyl)thio]-benzenemethanamine, reference compound]",< 0.5
4,"CN(C)Cc1ccccc1Oc1ccc(Cl)cc1.O=C(O)/C=C\C(=O)O [Example 4, 2-(4-chlorophenoxy)-N,N-dimethylbenzenemethanamine (Z)-2-butenedioate]",1

# Same assay, conditions: rat, in vivo; biological half-life, sleep-wake behaviour in rats; read-out: half-life (converted)
row,Structure (SMILES),half-life [h]
1,"Cl.NCc1ccccc1Oc1ccc(Cl)cc1 [Example 1, 2-(4-chlorophenoxy)benzenemethanamine hydrochloride]",1 to 2.5
2,"Clc1ccc(Oc2ccccc2C2=NCCN2)cc1.O=C(O)/C=C\C(=O)O [Example 5, 2-[2-(4-chlorophenoxy)phenyl]-4,5-dihydro-1H-imidazole (Z)-2-butenedioate]",3
3,"Cl.NCc1ccccc1Oc1ccc(Cl)c(Cl)c1 [Example 2, 2-(3,4-dichlorophenoxy)benzenemethanamine hydrochloride]",2.5

# From patent US5430063A, “Phenoxyphenyl derivatives, compositions thereof and methods for their use” (Akzo N.V., priority 1991, dated 1995)
